Results from publication PMC5584973, “Characterization of novel bangle lectin from Photorhabdus asymbiotica with dual sugar-binding specificity and its effect on host immunity” (PLoS Pathogens, 2017).

Columns and labels:
[1] = system: whole human blood; assay: Oxidative burst (ROS production) in human blood; type: cell-based; conditions: 125 μg protein
Method: ROS production was measured according to previously published work in whole human blood within 15 min of sampling. The fresh human blood (2 μl diluted 40x in HBSS; 0.137 M NaCl, 5.4 mM KCl, 0.44 mM KH2PO4, 0.25 mM Na2HPO4, 4.2 mM NaHCO3, 1.0 mM MgSO4, 1.3 mM CaCl2, 5.55 mM glucose; pH 7.4) was mixed with 25 μl of PHL (125 μg in PBS for all experiments except dose-dependence assay where different dilutions of PHL were used), BSA (125 μg in PBS) or PBS (pH 7.4) and incubated for 10 min at 37°C or room temperature. After incubation, 25 μl of the luminophore (10 mM luminol) and 25 μl of activator zymosan A (2.5 mg/ml in HBSS) was added to activate ROS production in phagocytes. To detect the constitutive production of ROS, zymosan was replaced with the same volume of HBSS. Luminescence was recorded with a Chameleon V luminometer (Hidex, Finland) for two hours at 37°C or room temperature, and the integrals of reactions were compared. Results from experimental treatments (incubation of blood with PHL and BSA) were normalised to the integral of the oxidative response in the respective blood sample with PBS.

[2] = system: human serum; assay: Antimicrobial activity of human serum against E. coli K12; conditions: 320 μg protein
Method: Samples of human blood were collected from healthy donors to tubes without anticoagulant and anonymized prior to experiments. The blood was allowed to clot for at least 10 min, centrifuged at 2,000 g, 10 min to remove the clot and the collected serum was used immediately for subsequent analysis. The serum was analysed within two hours after blood collection in all experiments.
(§1) The antimicrobial activity of human sera and insect haemolymph was measured luminometrically using the bioluminescent Gram-negative bacteria Escherichia coli K12 [59]. We have modified previously published protocol to measure the effect of PHL [60]. […] After treatment, 120 μl of bacteria working solution containing 100,000 E. coli K12 cells in PBS (pH 7.0) was added to the reaction well and the luminescence signal was recorded with a Chameleon V luminometer (Hidex, Finland) in counts per second (CPS). Reaction wells with PHL, BSA or PBS in an 80 μl volume of the same concentrations and pH as above were measured with E. coli K12 in each experiment as viability controls, not affected by human serum nor haemolymph. The luminescence produced by E. coli K12 corresponds to the bacterial viability. The antimicrobial effect of human sera and haemolymph was determined as time elapsed until the luminescence signal decreased under 1000 or 5000 CPS, respectively. […]

[3] = system: G. mellonella haemolymph; assay: Antimicrobial activity of insect haemolymph against E. coli K12; set-up: species or system Galleria mellonella; conditions: 320 μg protein
Method: (§2) Larvae of the greater wax moth, Galleria mellonella, were reared on an artificial diet at 30 ± 1°C in constant darkness. Haemolymph was collected from the seventh instar larvae by cutting a proleg and pooling the haemolymph into a tube containing phenylthiourea (1 mg/ml in PBS; haemolymph mixed with phenylthiourea in the ratio 9:1 [v/v]) or used directly for the determination of phenoloxidase activity.
as §1

[4] = system: phenoloxidase (PO) in haemolymph of G. mellonella; assay: Phenoloxidase activity in insect haemolymph; type: biochemical, Galleria mellonella; conditions: G. mellonella haemolymph; 475 μg for BSA, PLL
Method: as §2
PO activity was measured according to previously published studies. Haemolymph of G. mellonella (5 μl) was collected directly to 95 μl of PHL (475 μg in PBS for all experiments except dose-dependence assay where different dilutions of PHL were used), PLL (475 μg in PBS), BSA (475 μg in PBS) or PBS (pH 7.4) and incubated for 10 min at room temperature. After incubation, 40 μl of reaction mixture was transported to the microplate well and 160 μl of 3,4-dihydroxy-DL-phenylalanine (3 mg/ml in PBS) was added as substrate. The reaction was allowed to proceed for 30 min, and absorbance was measured in 2-min intervals at 492 nm with a Sunrise reader (Tecan, Switzerland). PO activity was expressed as linear increase in absorbance per minute. For the inhibition assay, PHL was pre-incubated with 0.2M L-Fuc or Me-α-L-Fuc for 10 min at room temperature prior to mixing with haemolymph.

bovine serum albumin [BSA] was tested, and the “ROS production (integral of luminescence)” value ([1]; blood challenged with activator zymosan A) was 5.3±1.3 x 10^6 CPS*min, the “constitutive ROS production (integral of luminescence)” value ([1]; whole human blood A/B/O, without activator, 2 hours) was 26.9±16.9 x 10^3 CPS*min and the “effect on antimicrobial activity against E. coli K12” value [2] was “not able to block the effect of antimicrobial factors”. The “effect on antimicrobial activity against E. coli K12” value [3] was “not able to block the effect of antimicrobial factors” and the “effect on PO activity (melanisation)” value [4] was “did not have any effect”.
